For orientation: melting point means the temperature, or range, at which the solid turns liquid.

Each structure is given as a SMILES string. Counter-ions that a name gives are not always drawn.

As for `O=C1COc2cc(-c3cncc4ccccc34)ccc2N1` [Example 55, 7-(Isoquinolin-4-yl)-2H-benzo[b][1,4]oxazin-3(4H)-one], the melting point is 266 °C.
In turn, `CN1C(=O)CCc2cc(-c3cccnc3)ccc21` [Example 2, 1-Methyl-6-pyridin-3-yl-3,4-dihydro-1H-quinolin-2-one] returned a melting point of 101 °C.
In turn, `O=C1CCc2cc(-c3cncnc3)cc3c2N1CC3` [Example 30, 8-Pyrimidin-5-yl-1,2,5,6-tetrahydro-pyrrolo[3,2,1-ij]quinolin-4-one] showed a melting point of 186 °C.
Regarding `CC1(C)CC(=O)N2CCc3cc(-c4cccnc4)cc1c32` [Example 24, 6,6-Dimethyl-8-pyridin-3-yl-1,2,5,6-tetrahydro-pyrrolo[3,2,1-ij]quinolin-4-one], the melting point worked out at 180 °C.
For `COc1cncc(-c2ccc3c(c2)CCC(=O)N3)c1` [Example 4, 6-(5-Methoxypyridin-3-yl)-3,4-dihydro-1H-quinolin-2-one] the value was 215 °C; for `O=C1CCc2cc(-c3cccnc3)c(O)cc2N1` [Example 50], 298 °C; for `S=C1CCc2cc(-c3cccnc3)cc(Cl)c2N1` [Example 15, 8-Chloro-6-pyridin-3-yl-3,4-dihydro-1H-quinoline-2-thione], 175 °C.
Regarding `S=C1CCc2cc(-c3cccnc3)cc3c2N1CC3` (as salt: HCl) [Example 22, 8-Pyridin-3-yl-1,2,5,6-tetrahydro-pyrrolo[3,2,1-ij]quinoline-4-thione], the melting point is 283 °C.
For the compound `O=C1COc2cc(-c3cccnc3)ccc2N1` [Example 53, 7-(Pyridin-3-yl)-2H-benzo[b][1,4]oxazin-3(4H)-one], the melting point was 256 °C.
For `CCOc1cncc(-c2cc3c4c(c2)CCN4C(=O)CC3)c1` [Example 25, 8-(5-Ethoxypyridin-3-yl)-1,2,5,6-tetrahydro-pyrrolo[3,2,1-ij]quinolin-4-one], the melting point stood at 172 °C.
For `CN1CC(=O)Nc2ccc(-c3cccnc3)cc21` [Example 57, 4-Methyl-6-(pyridin-3-yl)-3,4-dihydroquinoxalin-2(1H)-one], the melting point was above 300 °C.
Compound `O=C1CCc2cc(-c3ccncc3)cc3c2N1CC3` [Example 29, 8-Pyridin-4-yl-1,2,5,6-tetrahydro-pyrrolo[3,2,1-ij]quinolin-4-one] yielded a melting point of 174 °C.
For `CCC(c1cc2c3c(c1)CCN3C(=O)CC2)n1ccnc1` (centres unmarked) [Example 60, 8-(1-(1H-imidazol-1-yl)propyl)-1,2,5,6-tetrahydropyrrolo[3,2,1-ij]quinolin-4-one] the value was 195 °C; for `COc1cncc(-c2cc3c4c(c2)CCN4C(=O)CC3)c1` [Example 17, 8-(5-Methoxypyridin-3-yl)-1,2,5,6-tetrahydro-pyrrolo[3,2,1-ij]quinolin-4-one], 172 °C; for `O=C1CCc2cc(-c3cncc4ccccc34)cc3c2N1CC3` [Example 18, 8-Isoquinolin-4-yl-1,2,5,6-tetrahydro-pyrrolo[3,2,1-ij]quinolin-4-one], 185 °C.
Next, `O=C1CCc2cc(-c3cncnc3)ccc2N1` [Example 21, 6-Pyrimidin-5-yl-3,4-dihydro-1H-quinolin-2-one]: 233 °C.
For `CC(C)Oc1cncc(-c2cc3c4c(c2)CCN4C(=O)CC3)c1` [Example 34, 8-(5-Isopropoxypyridin-3-yl)-1,2,5,6-tetrahydro-pyrrolo[3,2,1-ij]quinolin-4-one] the value was 155 °C; for `O=C1CCc2cc(-c3cncc(C(F)(F)F)c3)cc3c2N1CC3` [Example 26, 8-(5-Trifluoromethylpyridin-3-yl)-1,2,5,6-tetrahydro-pyrrolo[3,2,1-ij]quinolin-4-one], 212 °C; for `O=C1CCc2cc(-c3cccnc3)cc([N+](=O)[O-])c2N1` [Example 13, 8-Nitro-6-pyridin-3-yl-3,4-dihydro-1H-quinolin-2-one], 189 °C.
`O=C(c1ccncc1)c1cc2c3c(c1)CCN3C(=O)CC2` [Example 31, 8-(Pyridine-4-carbonyl)-1,2,5,6-tetrahydro-pyrrolo[3,2,1-ij]quinolin-4-one] returned a melting point of 184 °C.
`O=C1CCc2cc(-c3cncc(-c4cccc(F)c4)c3)cc3c2N1CC3` [Example 37, 8-[5-(3-Fluorophenyl)-pyridin-3-yl]-1,2,5,6-tetrahydro-pyrrolo[3,2,1-ij]quinolin-4-one] gave a melting point of 181 °C.
With `CC(c1cc2c3c(c1)CCN3C(=O)CC2)n1ccnc1` (centres unmarked) [Example 35, 8-(1-Imidazol-1-yl-ethyl)-1,2,5,6-tetrahydro-pyrrolo[3,2,1-ij]quinolin-4-one], the melting point was found to be 197 °C.
Next, `O=C1CNc2cc(-c3cncc4ccccc34)ccc2N1` [Example 56, 6-(Isoquinolin-4-yl)-3,4-dihydroquinoxalin-2(1H)-one]: above 300 °C.
Compound `O=C1CCc2cc(-c3cncc(F)c3)cc3c2N1CC3` [Example 27, 8-(5-Fluoropyridin-3-yl)-1,2,5,6-tetrahydro-pyrrolo[3,2,1-ij]quinolin-4-one] showed a melting point of 158 °C.
In turn, `O=C1CCc2cc(-c3cncc(-c4ccccc4)c3)cc3c2N1CC3` [Example 33, 8-(5-Phenylpyridin-3-yl)-1,2,5,6-tetrahydro-pyrrolo[3,2,1-ij]quinolin-4-one] yielded a melting point of 189 °C.
`O=C1CCc2cc(-c3cccnc3)cc(F)c2N1` [Example 46] showed a melting point of 203 °C.
As to `O=C(c1cccnc1)c1cc2c3c(c1)CCN3C(=O)CC2` [Example 32, 8-(Pyridine-3-carbonyl)-1,2,5,6-tetrahydro-pyrrolo[3,2,1-ij]quinolin-4-one], the melting point turned out to be 147 °C.
Consider `Fc1cc2c(cc1-c1cccnc1)CCC(=S)N2` [Example 52], for which the melting point was 248 °C.
For `Fc1cc(-c2cccnc2)cc2c1NC(=S)CC2` [Example 51], the melting point is 235 °C.
As for `O=C1CCc2cc(-c3cncc4ccccc34)c(F)cc2N1` [Example 49], the melting point was 281 °C.
Next, `O=C1CCc2cc(-c3cncc4ccccc34)cc3c2N1CCC3` [Example 20, 9-Isoquinolin-4-yl-1,2,6,7-tetrahydro-5H-pyrido[3,2,1-ij]quinolin-3-one]: 159 °C.
Next, `O=C1CCc2cc(-c3cncc(O)c3)cc3c2N1CC3` (as salt: HCl) [Example 23, 8-(5-Hydroxypyridin-3-yl)-1,2,5,6-tetrahydro-pyrrolo[3,2,1-ij]quinolin-4-one]: above 300 °C; `O=C1CCc2cc(-c3cncc(-c4ccc(F)cc4)c3)cc3c2N1CC3` [Example 36, 8-[5-(4-Fluorophenyl)-pyridin-3-yl]-1,2,5,6-tetrahydro-pyrrolo[3,2,1-ij]quinolin-4-one]: 233 °C; `O=C1CCc2cc(-c3cccnc3)cc3c2N1CCC3` [Example 16, 9-Pyridin-3-yl-1,2,6,7-tetrahydro-5H-pyrido[3,2,1-ij]quinolin-3-one]: 123 °C.
For `O=C1CCc2cc(-c3cccnc3)c(F)cc2N1` [Example 47] the value was 228 °C; for `O=C1CCc2cc(-c3cncc4ccccc34)cc(F)c2N1` [Example 48, 8-Fluoro-6-isoquinolin-4-yl-3-yl-3,4,4a,8a-tetrahydro-1H-quinolin-2-one], 202 °C.
Compound `O=C1CCc2cc(-c3cccnc3)cc3c2N1CC3` [Example 11, 8-Pyridin-3-yl-1,2,5,6-tetrahydro-pyrrolo[3,2,1-ij]quinoline-4-one] returned a melting point of 152 °C.
`CC(C)N1C(=O)CCc2cc(-c3cccnc3)ccc21` [Example 10, 1-Isopropyl-6-pyridin-3-yl-3,4-dihydro-1H-quinolin-2-one]: the melting point was 101 °C.
